Data: patent publication US20040044177A1, “Peptide compounds having improved binding affinity to somatostatin receptors” (priority 2002, published 2004)
Bridge positions count the residues as written; N and C are the ends. Square brackets hold non-standard residues; d marks the D form. Peptide text beside a SMILES is read from it. * marks the point of attachment. DOTA = O=C(O)CN1CCN(CC(=O)O)CCN(CC(=O)*)CCN(CC(=O)O)CC1; 1Nal = N[C@@H](Cc1cccc2ccccc12)C(=O)O; Bta = N[C@@H](Cc1csc2ccccc12)C(=O)O; Thr(ol) = C[C@@H](O)[C@H](N)CO

Experiments:
[1] = biological target: human somatostatin receptor subtype hsst5 (Homo sapiens, UniProt P35346); assay: In vitro binding affinity of peptide analogs (Table III), hsst5; conditions: DOTA complexed with stable Y or In
human somatostatin receptor subtype hsst5, sequence (P35346 whole entry): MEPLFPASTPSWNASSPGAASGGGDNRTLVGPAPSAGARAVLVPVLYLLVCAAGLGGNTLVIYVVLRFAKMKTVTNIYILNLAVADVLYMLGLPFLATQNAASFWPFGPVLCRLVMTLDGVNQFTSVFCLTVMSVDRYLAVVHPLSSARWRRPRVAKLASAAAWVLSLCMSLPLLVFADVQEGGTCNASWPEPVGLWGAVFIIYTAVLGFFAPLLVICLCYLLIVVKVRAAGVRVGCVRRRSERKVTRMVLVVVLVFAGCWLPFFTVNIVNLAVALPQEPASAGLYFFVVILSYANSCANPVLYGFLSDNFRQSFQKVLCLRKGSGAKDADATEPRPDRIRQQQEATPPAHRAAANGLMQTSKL
Experimental: (§1) IC50 values were determined as described by Reubi et al. (Eur J Nuc Med 28:836-846, 2001).

[2] = biological target: T1, human somatostatin receptor subtype hsst3 (Homo sapiens, UniProt P32745); assay: In vitro binding affinity of peptide analogs (Table III), hsst3; conditions: DOTA complexed with stable Y or In
T1 sequence (P32745 whole entry): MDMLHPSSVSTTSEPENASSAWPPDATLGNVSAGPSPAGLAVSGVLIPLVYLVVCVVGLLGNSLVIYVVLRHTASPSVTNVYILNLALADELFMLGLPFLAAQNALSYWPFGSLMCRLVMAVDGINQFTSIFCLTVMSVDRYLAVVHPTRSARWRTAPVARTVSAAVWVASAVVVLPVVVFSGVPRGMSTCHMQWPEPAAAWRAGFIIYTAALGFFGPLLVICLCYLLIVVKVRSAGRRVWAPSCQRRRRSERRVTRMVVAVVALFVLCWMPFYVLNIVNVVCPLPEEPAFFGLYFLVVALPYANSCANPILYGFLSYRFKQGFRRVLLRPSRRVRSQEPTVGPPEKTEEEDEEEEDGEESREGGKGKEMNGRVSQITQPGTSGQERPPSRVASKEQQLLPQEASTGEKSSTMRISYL
Experimental: Table III, presents the binding affinity of the new compounds to human somatostatin receptor subtypes as compared to the compound, Y-DOTA-TATE, described by Srinivasan et al. (U.S. Pat. No. 5,830,431).
as §1

[3] = biological target: T1, human somatostatin receptor subtype hsst3; assay: In vitro binding affinity, transfected cell lines, hsst 3; parameters: expressed in transfected cells; conditions: compared with cpd. 6 (Y-DOTA-LAN)
[4] = biological target: T2, somatostatin human receptor subtype (hsst) 2 (Homo sapiens, UniProt P30874); assay: In vitro binding affinity, transfected cell lines, hsst 2; conditions: compared with compound 7 (Y-DOTA-TOC)
T2 construct: expressed in transfected cells
T2 sequence (P30874 whole entry): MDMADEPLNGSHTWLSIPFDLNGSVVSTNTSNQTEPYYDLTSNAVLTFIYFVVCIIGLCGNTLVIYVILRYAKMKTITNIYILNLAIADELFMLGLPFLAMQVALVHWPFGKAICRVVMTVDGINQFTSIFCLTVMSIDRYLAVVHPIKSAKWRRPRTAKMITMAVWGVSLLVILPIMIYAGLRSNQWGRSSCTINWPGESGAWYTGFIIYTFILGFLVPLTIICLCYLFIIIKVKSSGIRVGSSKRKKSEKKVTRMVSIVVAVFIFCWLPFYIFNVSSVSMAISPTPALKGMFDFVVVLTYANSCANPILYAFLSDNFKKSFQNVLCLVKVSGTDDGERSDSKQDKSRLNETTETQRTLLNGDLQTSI

C[C@@H](O)[C@H](NC(=O)[C@@H]1CSSC[C@H](NC(=O)[C@@H](Cc2ccccc2)NC(=O)CN2CCN(CC(=O)O)CCN(CC(=O)O)CCN(CC(=O)O)CC2)C(=O)N[C@@H](Cc2ccc(O)c(I)c2)C(=O)N[C@H](Cc2c[nH]c3ccccc23)C(=O)N[C@@H](CCCCN)C(=O)N[C@@H]([C@@H](C)O)C(=O)N1)C(=O)O [compound 2]
IC50 [1]: 65 nM
IC50 [2]: 170 nM

C[C@@H](O)[C@@H]1NC(=O)[C@H](CCCCN)NC(=O)[C@@H](Cc2c[nH]c3ccccc23)NC(=O)[C@H](Cc2cccc3ccccc23)NC(=O)[C@@H](NC(=O)[C@@H](Cc2ccccc2)NC(=O)CN2CCN(CC(=O)O)CCN(CC(=O)O)CCN(CC(=O)O)CC2)CSSC[C@@H](C(=O)N[C@H](CO)[C@@H](C)O)NC1=O [cpd. 8, ^90Y-labelled DOTA-(D)Phe-cyclo[Cys-(D) 1-Nal-(D)Trp-Lys-Thr-Cys]-Thr-ol, metal not drawn] ({DOTA}-[dF]C[1Nal][dW]KTC[Thr(ol)]; disulfide 2-7)
affinity to sst 3 relative to cpd. 6 [3]: approx. five times better
binding affinity to sst 2 relative to compound 7 [4]: approx. three times better

C[C@@H](O)[C@@H]1NC(=O)[C@H](CCCCN)NC(=O)[C@@H](Cc2c[nH]c3ccccc23)NC(=O)[C@H](Cc2csc3ccccc23)NC(=O)[C@@H](NC(=O)[C@@H](Cc2ccccc2)NC(=O)CN2CCN(CC(=O)O)CCN(CC(=O)O)CCN(CC(=O)O)CC2)CSSC[C@@H](C(=O)N[C@H](CO)[C@@H](C)O)NC1=O [cpd. 9, ^90Y-labelled DOTA-(D)Phe-cyclo[Cys-(D)3-benzothienylalanyl-(D)Trp-Lys-Thr-Cys]-Thr-ol, metal not drawn] ({DOTA}-[dF]C[Bta][dW]KTC[Thr(ol)]; disulfide 2-7)
binding affinity to sst 2 relative to compound 7 [4]: approx. three times better
